Like-named read-outs stand apart in the source and are kept apart here.
Tests used:
PKC epsilon = biological target: T1, PKC epsilon (Homo sapiens, UniProt Q02156); experiment: Biochemical assay for PKC epsilon (fluorescence polarization, Protein Kinase C Assay Kit, Red)
T1 construct: purchased Invitrogen P2282
T1 sequence (Q02156 1-737): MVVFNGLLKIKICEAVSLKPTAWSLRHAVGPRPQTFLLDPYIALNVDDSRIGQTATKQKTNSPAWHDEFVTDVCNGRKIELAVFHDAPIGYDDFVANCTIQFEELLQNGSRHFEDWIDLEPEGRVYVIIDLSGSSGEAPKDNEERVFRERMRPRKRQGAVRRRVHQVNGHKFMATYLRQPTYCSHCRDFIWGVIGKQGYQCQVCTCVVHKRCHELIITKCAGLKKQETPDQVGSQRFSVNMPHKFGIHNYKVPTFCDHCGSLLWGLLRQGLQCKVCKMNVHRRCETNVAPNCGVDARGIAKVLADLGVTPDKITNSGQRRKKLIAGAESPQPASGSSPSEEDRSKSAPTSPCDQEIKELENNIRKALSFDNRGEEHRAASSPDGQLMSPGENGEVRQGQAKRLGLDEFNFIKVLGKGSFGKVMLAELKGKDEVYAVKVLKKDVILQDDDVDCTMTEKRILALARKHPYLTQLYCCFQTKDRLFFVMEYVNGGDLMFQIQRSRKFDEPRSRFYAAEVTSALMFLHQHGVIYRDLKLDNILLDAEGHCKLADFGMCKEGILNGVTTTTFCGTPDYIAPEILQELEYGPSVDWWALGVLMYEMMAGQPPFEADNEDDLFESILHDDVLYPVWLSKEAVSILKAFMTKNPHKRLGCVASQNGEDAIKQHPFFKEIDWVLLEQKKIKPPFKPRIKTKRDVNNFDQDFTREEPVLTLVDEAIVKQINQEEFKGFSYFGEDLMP
Summary of the method: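 Read-out was fluorescence-polarization competition between phosphorylated substrate and a rhodamine PKC tracer for an anti-phosphoserine antibody, added with EDTA stop after an 80 min room-temperature kinase reaction with ATP and protein substrate (Mg2+/Ca2+ buffer). Enzyme (10 ng/ml final) was preincubated with compound for 30 min.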

human ROCKα/ROCKII mix = biological target: T2, human ROCKα/ROCKII mix (Homo sapiens, UniProt O75116); experiment: Biochemical assay for ROCK (fluorescence polarization, ROCK IMAP Kit)
T2 construct: purchased Upstate Biotechnology 14-451

[1] = Table 2, compounds of Formula XIII
[2] = compounds of Formula XIV, Table 3, read-out: IC50 μM PKCε
[3] = compounds of Formula XIV, Table 3
[4] = Table 2, compounds of Formula XIII, read-out: IC50 μM PKCε

T2 sequence (O75116 11-552 limits assumed): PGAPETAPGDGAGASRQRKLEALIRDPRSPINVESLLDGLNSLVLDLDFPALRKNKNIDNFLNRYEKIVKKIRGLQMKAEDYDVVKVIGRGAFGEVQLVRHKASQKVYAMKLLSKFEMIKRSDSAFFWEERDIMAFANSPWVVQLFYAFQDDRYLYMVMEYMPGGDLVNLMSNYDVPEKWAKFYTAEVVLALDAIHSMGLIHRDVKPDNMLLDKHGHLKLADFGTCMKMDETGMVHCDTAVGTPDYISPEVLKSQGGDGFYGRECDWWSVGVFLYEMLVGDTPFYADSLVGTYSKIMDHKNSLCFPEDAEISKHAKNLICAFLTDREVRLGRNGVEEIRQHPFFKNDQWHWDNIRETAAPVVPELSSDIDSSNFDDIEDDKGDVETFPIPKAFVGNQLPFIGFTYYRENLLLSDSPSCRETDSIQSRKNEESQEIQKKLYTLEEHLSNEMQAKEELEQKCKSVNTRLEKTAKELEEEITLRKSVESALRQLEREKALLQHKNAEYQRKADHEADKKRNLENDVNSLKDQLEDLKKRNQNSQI

Row | Molecule | IC50 (human ROCKα/ROCKII mix; [1]) [µM] | IC50 (PKC epsilon; read-out: IC50 μM PKCε) [µM] | IC50 (human ROCKα/ROCKII mix) [µM] | IC50 (PKC epsilon; [4]) [µM] | other results
1 | NC(CNC(=O)Cc1c(F)cccc1F)c1ccc(C(=O)Nc2ccncc2)cc1 (stereo not shown) [Compound 149, 4-{1-Amino-2-[2-(2,6-difluororo-phenyl)-acetylamino]-ethyl}-N-pyridin-4-yl-benzamide] | 0.5 to 5 |  |  |  | IC50 (PKC epsilon; IC50 μM PKCε, Table 2, compounds of Formula XIII): 0.5 to 5 µM
2 | NC(CC(=O)NCc1ccc(Br)cc1F)c1ccc(C(=O)Nc2ccncc2)cc1 (stereo not shown) [Compound 262, 4-[1-Amino-2-(4-bromo-2-fluoro-benzylcarbamoyl)-ethyl]-N-pyridin-4-yl-benzamide] |  |  |  |  | IC50 (PKC epsilon; [2]): 0.5 to 5 µM; IC50 (human ROCKα/ROCKII mix; [3]): 0.05 to 0.5 µM
3 | CC(C)(C)c1ccc(CCNC(=O)CC(N)c2ccc(C(=O)Nc3ccncc3)cc2)cc1 (stereo not shown) [Compound 285, 4-{1-Amino-2-[2-(4-tert-butyl-phenyl)-ethylcarbamoyl]-ethyl}-N-pyridin-4-yl-benzamide] |  |  |  |  | IC50 (PKC epsilon; [2]): 5 to 50 µM; IC50 (human ROCKα/ROCKII mix; [3]): 0.05 to 0.5 µM
4 | CCOc1ccc(CCNC(=O)CC(N)c2ccc(C(=O)Nc3ccncc3)cc2)cc1 (stereo not shown) [Compound 290] |  |  |  |  | IC50 (PKC epsilon; [2]): 0.5 to 5 µM; IC50 (human ROCKα/ROCKII mix; [3]): 0.05 to 0.5 µM
5 | 4-(1-Amino-2-{[2-(5-bromo- pyridin-3-yl)-acetyl]-methyl- amino}-ethyl)- N-pyridin-4-yl-benzamide [Compound 442] |  | 5 to 50 | 0.5 to 5 |  | 
6 | Cc1ccc(C)c(CC(=O)NCC(N)c2ccc(C(=O)Nc3ccncc3)cc2)c1 (stereo not shown) [Compound 144, 4-{1-Amino-2-[2-(2,5-dimethyl-phenyl)-aceylamino]-ethyl}-N-pyridin-4-yl-benzamide] | 0.5 to 5 |  |  | 0.5 to 5 | 
7 | CN(CC(N)c1ccc(C(=O)Nc2ccncc2)cc1)C(=O)C1CCSc2ccccc21 (stereo not shown) [Compound 517, Thiochroman-4-carboxylic acid {2-amino-2-{4-(pyridin-4-ylcarbamoyl)-phenyl]-ethyl}-methyl-amide] |  | 5 to 50 | 5 to 50 |  | 
8 | NC(CC(=O)NCCc1cccc(F)c1)c1ccc(C(=O)Nc2ccncc2)cc1 (stereo not shown) [Compound 306] |  |  |  |  | IC50 (PKC epsilon; [2]): 5 to 50 µM; IC50 (human ROCKα/ROCKII mix; [3]): 0.5 to 5 µM
9 | NC(CNC(=O)CC1C=CCC1)c1ccc(C(=O)Nc2ccncc2)cc1 (stereo not shown) [Compound 48, 4-[1-Amino-2-(2-cyclopent-2-enyl-acetylamino)-ethyl]-N-pyridin-4-yl-benzamide] | 0.05 to 0.5 |  |  | 0.5 to 5 | 
10 | CC(=NOCC(=O)NCC(N)c1ccc(C(=O)Nc2ccncc2)cc1)c1ccccc1 (stereo not shown) [Compound 60, 4-{1-Amino-2-[2-(1-phenyl-ethylideneaminooxy)-acetylamino]-ethyl}-N-pyridin-4-yl-benzamide] | 0.05 to 0.5 |  |  | 0.5 to 5 | 
11 | NC(CC(=O)NCc1ccc([N+](=O)[O-])cc1)c1ccc(C(=O)Nc2ccncc2)cc1 (stereo not shown) [Compound 273, 4-[1-Amino-2-(4-nitro-benzylcarbamoyl)-ethyl]-N-pyridin-4-yl-benzamide] |  |  |  |  | IC50 (PKC epsilon; [2]): 0.5 to 5 µM; IC50 (human ROCKα/ROCKII mix; [3]): 0.05 to 0.5 µM
12 | NC(CNC(=O)c1cccc(Cn2cccn2)c1)c1ccc(C(=O)Nc2ccncc2)cc1 (stereo not shown) [Compound 103, 4-{1-amino-2-[(3-pyrazol-1ylmethyl)-benzoylamino]-ethyl}-N-pyridin-4-yl-benzamide] | 0.5 to 5 |  |  | 0.5 to 5 | 
13 | CN(CC(N)c1ccc(C(=O)Nc2ccncc2)cc1)C(=O)Cc1ccc(Cl)cc1Cl (stereo not shown) [Compound 490, 4-(1-Amino-2-{[2-(2,4-dichloro-phenyl)-acetyl]-methyl-amino}-ethyl)-N-pyridin-4-yl-benzamide] |  | 5 to 50 | 0.5 to 5 |  | 
14 | NC(CC(=O)NC1CCCc2ccccc21)c1ccc(C(=O)Nc2ccncc2)cc1 (single isomer, unassigned) [Compound 221] |  |  |  |  | IC50 (PKC epsilon; [2]): 0.05 to 0.5 µM; IC50 (human ROCKα/ROCKII mix; [3]): 0.05 to 0.5 µM
15 | Cc1nc(-c2ccccc2)sc1C(=O)NCC(N)c1ccc(C(=O)Nc2ccncc2)cc1 (stereo not shown) [Compound 126, 4-Methyl-2-Phenyl-thiazole-5-carboxylic acid {2-amino-2-[4-(pyridin-4-ylcarbamoyl)-phenyl]-ethyl}-amide] | 0.5 to 5 |  |  | 5 to 50 | 
16 | NC(c1ccc(C(=O)Nc2ccncc2)cc1)C1CCCN1C(=O)Cc1cc(F)ccc1F (stereo not shown) [Compound 579, 4-(Amino-{1-[2-(2,5-difluoro-phenyl)-acetyl]-pyrrolidin-2-yl}-methyl)-N-pyridin-4-yl-benzamide] |  | 5 to 50 | 0.5 to 5 |  | 

Row | Molecule | IC50 (human ROCKα/ROCKII mix; [1]) [µM] | IC50 (PKC epsilon; read-out: IC50 μM PKCε) [µM] | IC50 (human ROCKα/ROCKII mix) [µM] | IC50 (PKC epsilon; [4]) [µM] | other results
17 | Bicyclo[4.2.0]octa-1(6),2,4- triene-7-carboxylic acid {2- amino-2-[4-(pyridin-4- ylcarbamoyl)-phenyl]-ethyl}- methyl-amide [Compound 451] |  | 5 to 50 | 0.05 to 0.5 |  | 
18 | CC1CC1C(=O)NCC(N)c1ccc(C(=O)Nc2ccncc2)cc1 (stereo not shown) [Compound 40, 4-{1-Amino-2-[(2-methyl-cyclopropanecarbonyl)-amino]-ethyl}-N-pyridin-4-yl-benzamide] | 0.5 to 5 |  |  | 0.5 to 5 | 
19 | Cc1ccc(CC(=O)N(C)CC(N)c2ccc(C(=O)Nc3ccncc3)cc2)cc1 (stereo not shown) [Compound 424, 4-{1-Amino-2-[methyl-(2-p-tolyl-acetyl)-amino]-ethyl}-N-pyridin-4-yl-benzamide] |  | 5 to 50 | 0.5 to 5 |  | 
20 | NC(CNC(=O)Cc1ccc2c(c1)OCO2)c1ccc(C(=O)Nc2ccncc2)cc1 (stereo not shown) [Compound 141, 4-{1-amino-2-(2-benzo[1,3]dioxol-5-yl-acetylamino)-ethyl]-N-pyridin-4-yl-benzamide] | 0.05 to 0.5 |  |  | 5 to 50 | 
21 | COc1ccccc1CC(=O)N(C)CC(N)c1ccc(C(=O)Nc2ccncc2)cc1 (stereo not shown) [Compound 425, 4-(1-Amino-2-{[2-(2-methoxy-phenyl)-acetyl]-methyl-amino}-ethyl)-N-pyridin-4-yl-benzamide] |  | 5 to 50 | 0.5 to 5 |  | 
22 | CC(NC(=O)CC(N)c1ccc(C(=O)Nc2ccncc2)cc1)c1cccc2ccccc12 (stereo not shown) [Compound 230, 4-[1-Amino-2-(1-naphtalen-1-yl-ethylcarbamoyl)-ethyl]-N-pyridin-4-yl-benzamide] |  |  |  |  | IC50 (PKC epsilon; [2]): 0.5 to 5 µM; IC50 (human ROCKα/ROCKII mix; [3]): 0.05 to 0.5 µM
23 | NC(CNC(=O)C1(c2ccc(F)c(F)c2)CCC1)c1ccc(C(=O)Nc2ccncc2)cc1 (stereo not shown) [Compound 378, 4-(1-Amino-2-{[1-(3,4-difluoro-phenyl)-cyclobutanecarbonyl]-amino}-ethyl)-N-pyridin-4-yl-benzamide] | 0.05 to 0.5 |  |  | < 0.05 | 
24 | NC(CNC(=O)C1(c2ccc(Cl)c(Cl)c2)CC1)c1ccc(C(=O)Nc2ccncc2)cc1 (stereo not shown) [Compound 345, 4-(1-Amino-2-{[1-(3,4-dichloro-phenyl)-cyclopropanecarbonyl]-amino}-ethyl)-N-pyridin-4-yl-benzamide] | 0.05 to 0.5 |  |  | 0.05 to 0.5 | 
25 | NC(CNC(=O)COc1ccc(F)cc1)c1ccc(C(=O)Nc2ccncc2)cc1 (stereo not shown) [Compound 157, 4-{1-Amino-2-[2-(4-fluoro-phenoxy)-acetylamino]-ethyl}-N-pyridin-4-yl-benzamide] | 0.05 to 0.5 |  |  | 0.05 to 0.5 | 
26 | NC(c1ccc(C(=O)Nc2ccncc2)cc1)C1CCCN1C(=O)Cc1ccc(F)c(Cl)c1 (stereo not shown) [Compound 603, 4-(Amino-{1-[2-(3-chloro-4-fluoro-phenyl)-acetyl]-pyrrolidin-2-yl}-methyl)-N-pyridin-4-yl-benzamide] |  | 0.5 to 5 | 0.05 to 0.5 |  | 
27 | NC(CNC(=O)C1Cc2ccccc21)c1ccc(C(=O)Nc2ccncc2)cc1 (stereo not shown) [Compound 161, Bicyclo[4.2.0]octa-1,3,5-triene-7-carboxylic acid {2-amino-2-[4-(pyridin-4-ylcarbamoyl)-phenyl]-ethyl}-amide] | 0.05 to 0.5 |  |  | 0.5 to 5 | 
28 | NC(CNC(=O)Nc1ccc(Cl)cc1)c1ccc(C(=O)Nc2ccncc2)cc1 (stereo not shown) [Compound 326, 4-{1-Amino-2-[3-(4-chloro-phenyl)-ureido]-ethyl}-N-pyridin-4-yl-benzamide] |  | 0.05 to 0.5 | 0.05 to 0.5 |  | 
29 | COc1ccc(CC(=O)N(C)CC(N)c2ccc(C(=O)Nc3ccncc3)cc2)cc1 (stereo not shown) [Compound 427, 4-(1-Amino-2-{[2-(4-methoxy-phenyl)-acetyl]-methyl-amino}-ethyl)-N-pyridin-4-yl-benzamide] |  | 5 to 50 | 0.05 to 0.5 |  | 
30 | NC(CNC(=O)CNC(=O)c1ccccc1)c1ccc(C(=O)Nc2ccncc2)cc1 (stereo not shown) [Compound 55, 4-[1-Amino-2-(2-benzoylamino-acetylamino)-ethyl]-N-pyridin-4-yl-benzamide] | 0.05 to 0.5 |  |  | 5 to 50 | 
31 | COCCNC(=O)CC(N)c1ccc(C(=O)Nc2ccncc2)cc1 (stereo not shown) [Compound 180, 4-[1-amino-2-(2-methoxy-ethylcarbamoyl)-ethyl]-N-pyridin-4-yl-benzamide] |  |  |  |  | IC50 (PKC epsilon; [2]): 0.5 to 5 µM; IC50 (human ROCKα/ROCKII mix; [3]): 0.05 to 0.5 µM
32 | NC(CNC(=O)c1ccc(F)cc1)c1ccc(C(=O)Nc2ccncc2)cc1 (stereo not shown) [Compound 93, 4-[1-amino-2-(4-fluoro-benzoylamino)-ethyl]-N-pyridin-4-yl-benzamide] | 0.5 to 5 |  |  | 0.5 to 5 | 

Source: patent US20100168102A9, “Amide Derivatives as Kinase Inhibitors” (Devgen NV, priority 2005, published 2010)
